The record followed here is patent US20170058314A1, “NOVEL METHODOLOGY FOR IDENTIFYING ANTI-PERSISTER ACTIVITY AND ANTIMICROBIAL SUSCEPTIBILITY FOR BORRELIA BURGDORFERI AND OTHER BACTERIA” (priority 2014, published 2017).

Series [1] has as its system stationary phase B. burgdorferi persisters (strain B31). Description: SYBR Green I/PI viability assay (plate reader), FDA-approved drug library screen.
For series [2], the system named is round body form of B. burgdorferi. The experiment in a line: SYBR Green I/PI assay on amoxicillin-induced round body form. To be noted: for viability at 50 µM: Borreliella burgdorferi, 168 h, read-out: Residual viable cells (SYBR Green I/PI assay).
Series [3] deals with stationary phase B. burgdorferi persisters (strain B31). The experiment in a line: NCI compound library rescreen, epifluorescence microscope counting. To be noted: for viability at 20 µM / viability at 50 µM: Borreliella burgdorferi, 168 h; for viability at 20 µM: read-out: Residual viable cells (%) 20 μM (epifluorescence microscope counting); for Residual viable cells (%) 20 μM (epifluorescence microscope counting) / Residual viable cells (%) 50 μM (epifluorescence microscope counting): seven day old stationary phase; for Residual viable cells (%) 20 μM (epifluorescence microscope counting) / Residual viable cells (epifluorescence microscope counting) / Residual viable cells (%) 50 μM (epifluorescence microscope counting): 7 days; for Residual viable cells (epifluorescence microscope counting) / Residual viable cells (%) 50 μM (epifluorescence microscope counting): 50 μM; for Residual viable cells (epifluorescence microscope counting): seven day old stationary phase culture.

The test system is the same in series [4]. The experiment in a line: NCI compound library screen, SYBR Green I/PI assay (plate reader). To be noted: for viability at 20 µM / viability at 50 µM: Borreliella burgdorferi, 168 h; for viability at 20 µM: read-out: Residual viable cells (%) 20 μM (SYBR Green I/PI assay); for Residual viable cells (%) 20 μM (SYBR Green I/PI assay): seven day old stationary phase; for Residual viable cells (%) 20 μM (SYBR Green I/PI assay) / Residual viable cells (SYBR Green I/PI assay): 7 days; for Residual viable cells (SYBR Green I/PI assay): 50 μM, seven day old stationary phase culture.

The mark [5] stands for this setting: 50 μM, 7 days, stationary phase.
Setting [6] is: read-out: Residual viable cells (%) 50 μM (epifluorescence microscope counting).
[7] abbreviates: read-out: Residual viable cells (epifluorescence microscope counting).
Setting [8] is: read-out: Residual viable cells (SYBR Green I/PI assay).
[9] abbreviates: read-out: Residual viable cells (SYBR Green I/PI assay), 50 μM, seven day old stationary phase culture, 7 days.

Structures can show the parent of a compound that is named as a salt.

For the molecule `CO/N=C(\C(=O)N[C@@H]1C(=O)N2C(C(=O)O)=C(CSc3nnnn3C)CS[C@H]12)c1csc(N)n1` [Cefmenoxime], in series [1] (setting [5]), the “Ratio of Green/Red fluorescence, Primary screening” value turned out to be 6.82; the “Ratio of Green/Red fluorescence, Rescreening (first column)” value is 7.59; the “Ratio of Green/Red fluorescence, Rescreening (second column)” value turned out to be 6.32. The viability at 50 µM in series [1] (Borreliella burgdorferi, 168 h, read-out: Residual viable cells (regression equation, SYBR Green I/PI assay)) was found to be 48%. Further, in series [2], the viability at 50 µM stood at 32%. In series [2] (round body form, 50 μM, 7 days), the “Ratios of green/red fluorescence, Primary screening” value is 6.18; the “Ratios of green/red fluorescence, Rescreening (first column)” value is listed as 6.33; the “Ratios of green/red fluorescence, Rescreening (second column)” value worked out at 6.28.
`Cc1cc(C(=C2C=CC(=N)C=C2)c2ccc(N)cc2)ccc1N` [NSC93739, 2-Methyl-4,4′-[(4-imino-2,5-cyclohexadien-1-ylidene)methylene]dianiline hydrochloride]: the viability at 20 µM in series [3] turned out to be 77%; in series [4], 0%. Also, the viability at 50 µM amounted to 43% in series [3] (setting [6]), 43% in series [3] (setting [7]) and 0% in series [4] (setting [8]).
`CC[C@@]1(O)C[C@H](O[C@H]2C[C@H](N(C)C)[C@H](O)[C@H](C)O2)c2c(O)c3c(c(O)c2[C@H]1O[C@H]1C[C@H](N(C)C)[C@H](O)[C@H](C)O1)C(=O)c1cccc(O)c1C3=O` [NSC136044, Rhodomycin A]: in series [3], the “Residual viable cells (%) 20 μM (epifluorescence microscope counting)” value stood at 21%, the “Residual viable cells (epifluorescence microscope counting)” value is 22% and the “Residual viable cells (%) 50 μM (epifluorescence microscope counting)” value stood at 21%. Moreover, in series [4], the “Residual viable cells (%) 20 μM (SYBR Green I/PI assay)” value is 5% and the “Residual viable cells (SYBR Green I/PI assay)” value is listed as 0%.
On to `O/N=C(/c1ccccc1)c1ccc2c3c(cccc13)CC2` [NSC137399, 1-(1,2-Dihydro-5-acenaphthylenyl)-N-hydroxy-1-phenylmethanimine], for which the values for the viability at 50 µM in series [3] (setting [7]) and in series [4] (setting [8]) were 41% and 51%, respectively.
As to `O=C1c2cccc(Sc3ccccc3)c2C(=O)c2c(Sc3ccccc3)cccc21` [NSC156516, 1,8-Di(phenylthio)anthraquinone], the viability at 50 µM in series [3] (setting [7]) amounted to 50%; in series [4] (setting [9]), 46%.
As to `NC(=O)OCC1=C(COC(N)=O)C(=O)c2c(O)ccc(O)c2C1=O` [NSC224124, (5,8-dihydroxy-1,4-dioxo-1,4-dihydronaphthalene-2,3-diyl)dimethanediyl dicarbamate], the values for the viability at 20 µM in series [3] and in series [4] were 77% and 54%, respectively. In addition, the values for the viability at 50 µM in series [3] (setting [6]), in series [3] (setting [7]) and in series [4] (setting [8]) were 31%, 31% and 32%, respectively.
Consider `COc1cccc2c1C(=O)c1c(O)c3c(c(O)c1C2=O)C[C@@](O)(C(C)=O)C[C@@H]3OC1CC(N(C)C)C(O)C(C)O1` (stereo partly shown) [NSC258812, Dimethyldaunomycin hydrochloride], for which the values for the viability at 20 µM in series [3] and in series [4] were 10% and 0%, respectively. The viability at 50 µM in series [3] (setting [6]) stood at 10%; in series [3] (setting [7]) it was 10%; in series [4] (setting [8]) it was 0%.
In the case of `Cc1c2cc[n+](CCN3CCCCC3)cc2c(C)c2c1[nH]c1ccc(O)cc12` [NSC311153, 9-Hydroxy-2-(2-piperidinylethyl)ellipticinium acetate], the viability at 50 µM in series [3] (setting [7]) stood at 26%; in series [4] (setting [8]), 45%.
On the same counts, the results for `O=C1c2ccccc2C(=O)c2c(O)c(NCCNCCO)cc(O)c21` [NSC316157, 9,10-Anthracenedione, 1,4-dihydroxy-2-[[2-[(2-hydroxyethyl)amino]ethyl]amino]-] are 23% and 0%.
On the same counts, the results for `Cc1ccc(NCCN(C)C)c2c(=O)c3cc(O)ccc3sc12` [NSC317003, 9H-Thioxanthen-9-one, 1-[[2-(dimethylamino)ethyl]amino]-7-hydroxy-4-methyl-, monohydriodide] are 30% and 29%.
Consider `C=CCNc1ncnc2sc(SC)nc12` [NSC343783, N-Allyl-2-(methylthio)[1,3]thiazolo[5,4-d]pyrimidin-7-amine], for which the figures for the viability at 50 µM in series [3] (setting [7]) and in series [4] (setting [8]) were 20% and 67%, respectively.
Take `O=C1c2cccc(NCCCNCCO)c2C(=O)c2cccc(NCCCNCCO)c21` [NSC363998, Anthracene-9,10-dione, 1,5-bis[3-[[(2-hydroxyethyl)amino]propyl]amino]-9,10-dihydro-, dihydrochloride]: the viability at 20 µM in series [3] is 14%; in series [4], 22%. Further, the viability at 50 µM is 13% in series [3] (setting [6]), 13% in series [3] (setting [7]) and 0% in series [4] (setting [8]).
Consider `O=c1c(O)c(-c2ccc(O)c(O)c2)oc2cc(O)ccc12` [NSC407010, 2-(3,4-dihydroxyphenyl)-3,7-dihydroxy-4H-1-benzopyran-4-one], for which the viability at 50 µM in series [3] (setting [7]) came out at 38%; in series [4] (setting [9]) it was 39%.
For `Cc1cc(O)c2c(c1)C(=O)c1cc(O)cc(O)c1C2=O` [NSC408120, Emodin], the viability at 50 µM in series [3] (setting [7]) worked out at 31%; in series [4] (setting [8]), 18%.
On to `N=C(Nc1nc(-c2ccccn2)cc2ccccc12)c1ccccn1` [NSC637578, N-[3-(2-Pyridyl)isoquinolin-1-yl]-2-pyridinecarboxamidine], for which the viability at 50 µM was 26% in series [3] (setting [7]) and 46% in series [4] (setting [8]).
`COCCOC1=C(Cl)C(=O)c2c(O)ccc(O)c2C1=O` [NSC659997, Naphthalene-1,4-dione, 2-chloro-5,8-dihydroxy-3-(2-methoxyethoxy)-]: the viability at 20 µM in series [3] is 50%; in series [4] it was 40%. For the same molecule, the viability at 50 µM in series [3] (setting [6]) stood at 28%; in series [3] (setting [7]) it was 28%; in series [4] (setting [8]), 1%.
`CN(C)[C@@H]1C(O)=C(C(=O)NCN2CCCC2)C(=O)[C@@]2(O)C(O)=C3C(=O)c4c(O)cccc4[C@@](C)(O)[C@H]3C[C@@H]12` [Rolitetracycline]: the viability at 50 µM in series [2] is 35%. In series [2] (round body form, 50 μM, 7 days), the “Ratios of green/red fluorescence, Primary screening” value is recorded as 6.23; the “Ratios of green/red fluorescence, Rescreening (first column)” value is given as 6.35; the “Ratios of green/red fluorescence, Rescreening (second column)” value is reported as 6.37.
On the same counts, the results for `CN[C@@H]1[C@@H](O)[C@@H](O[C@@H]2[C@@H](O)[C@H](O[C@H]3OC(CN)=CC[C@H]3N)[C@@H](N)C[C@H]2N)OC[C@]1(C)O` [Sisomicin] are 33%, 6.27, 6.12 and 6.45.
On the same counts, the results for `CC(=O)NS(=O)(=O)c1ccc(N)cc1` [Sulfacetamide] are 29%, 6.26, 6.14 and 6.20.
For `COc1ccc(NS(=O)(=O)c2ccc(N)cc2)nn1` [Sulfamethoxypyridazine], in that order: 30%, 6.20, 6.07 and 6.34.
Consider `Nc1ccc(S(=O)(=O)O)cc1` [Sulfanilate], for which, in series [2] (round body form, 50 μM, 7 days), the “Ratios of green/red fluorescence, Primary screening” value was 6.49; the “Ratios of green/red fluorescence, Rescreening (first column)” value stood at 6.03; the “Ratios of green/red fluorescence, Rescreening (second column)” value came to 6.40; the “Residual viable cells (SYBR Green I/PI assay)” value is reported as 34%.
`Nc1ccc(S(=O)(=O)Nc2nccs2)cc1` [Sulfathiazole]: in series [2], the viability at 50 µM worked out at 31%. Besides, in series [2] (round body form, 50 μM, 7 days), the “Ratios of green/red fluorescence, Primary screening” value is 6.38; the “Ratios of green/red fluorescence, Rescreening (first column)” value is 6.18; the “Ratios of green/red fluorescence, Rescreening (second column)” value is recorded as 6.17.
For `Cc1noc(NS(=O)(=O)c2ccc(N)cc2)c1C` [Sulfisoxazole], the “activity against stationary phase B. burgdorferi (words; SYBR Green I/PI assay)” value in series [1] (FDA drug screen) is given as “effective”. For the same molecule, in series [2], the viability at 50 µM stood at 33%. In series [2] (round body form, 50 μM, 7 days), the “Ratios of green/red fluorescence, Primary screening” value came to 6.53; the “Ratios of green/red fluorescence, Rescreening (first column)” value came out at 6.15; the “Ratios of green/red fluorescence, Rescreening (second column)” value came to 6.18.
`CCS(=O)(=O)CCn1c([N+](=O)[O-])cnc1C` [Tinidazole]: the viability at 50 µM in series [2] was determined as 33%. Besides, in series [2] (round body form, 50 μM, 7 days), the “Ratios of green/red fluorescence, Primary screening” value came out at 6.24; the “Ratios of green/red fluorescence, Rescreening (first column)” value is recorded as 6.21; the “Ratios of green/red fluorescence, Rescreening (second column)” value stood at 6.36.
On to `C[C@H]1COc2c(N3CCN(C)CC3)c(F)cc3c(=O)c(C(=O)O)cn1c23` [levofloxacin], for which, in series [2], the viability at 50 µM was 41%.
On the same count and under the same terms, under `COc1c(N2C[C@@H]3CCCN[C@@H]3C2)c(F)cc2c(=O)c(C(=O)O)cn(C3CC3)c12` [moxifloxacin] stands 49%.
The same measure, in the same setting: to `CCn1cc(C(=O)O)c(=O)c2cc(F)c(N3CCNCC3)cc21` [norfloxacin] belongs 41%.
Consider “Benzoic acid, 2-hydroxy-, (2,6-pyridinediyldiethylidyne)dihydrazide, nickel complex [NSC617570]”, for which, in series [3], the “Residual viable cells (%) 20 μM (epifluorescence microscope counting)” value is reported as 50%, the “Residual viable cells (epifluorescence microscope counting)” value stood at 38% and the “Residual viable cells (%) 50 μM (epifluorescence microscope counting)” value turned out to be 38%. In series [4], the “Residual viable cells (%) 20 μM (SYBR Green I/PI assay)” value is reported as 66% and the “Residual viable cells (SYBR Green I/PI assay)” value is listed as 44%.
